# From article PMC9065035, “Structural basis for the synthesis of the core 1 structure by C1GalT1” (Nature Communications, 2022)
# Several values for one entry are separate records, joined by “and”; a condition that tells them apart may be missing. Equal entries are not always repeated. Where two headings read alike, the source gives them in different places. Peptide text beside a SMILES is read from it. * marks the point of attachment. αGalNAc = CC(=O)N[C@@H]1[C@@H](O)[C@@H](O)[C@@H](CO)O[C@@H]1*
# Key:
# [1] = molecular target: T1, DmC1GalT1^T43-Q388 (Drosophila melanogaster, UniProt Q7K237); assay: Isothermal titration calorimetry (ITC); format: binding; design: made in house
# T1 sequence (Q7K237 43-388): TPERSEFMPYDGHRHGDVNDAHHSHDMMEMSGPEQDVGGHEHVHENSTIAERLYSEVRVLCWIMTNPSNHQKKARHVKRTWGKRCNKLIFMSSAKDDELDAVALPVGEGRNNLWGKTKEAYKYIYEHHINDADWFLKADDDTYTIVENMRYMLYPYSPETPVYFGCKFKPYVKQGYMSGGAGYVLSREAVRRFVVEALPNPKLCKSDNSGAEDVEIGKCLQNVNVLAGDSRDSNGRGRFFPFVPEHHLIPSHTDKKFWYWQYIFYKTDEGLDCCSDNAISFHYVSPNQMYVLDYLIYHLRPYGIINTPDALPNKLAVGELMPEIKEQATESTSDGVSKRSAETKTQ
# Procedure: ITC was used to characterize the interaction of DmC1GalT1^T43-Q388 with UDP, APDT*RP with and without UDP, APDTRP with UDP, and P4/P7 with and without UDP. All experiments were carried out in an Auto-iTC200 (Microcal, GE Healthcare) at 20 °C. The titration of DmC1GalT1^T43-Q388 with UDP was carried out at 100 μM of the enzyme with 800 μM UDP in 25 mM TRIS pH 7.5, 150 mM NaCl and 1 mM MnCl2. The titrations with APDT*RP and P4/P7 in the absence of UDP were carried out at 60 μM of the enzyme with 2 mM P4/P7 in 25 mM TRIS pH 7.5, 150 mM NaCl and 1 mM MnCl2. To determine the Kds for APDT*RP, APDTRP and P4/P7 under an excess of UDP, the experiments were made in 25 mM TRIS pH 7.5, 150 mM NaCl, 1 mM UDP and 1 mM MnCl2. The concentration of the enzyme was 60 μM for the titrations of APDT*RP and APDTRP and 50 μM for the titration with P4/P7. The concentration of the (glyco)peptides was 2 mM in all the ITC experiments. The experiments were performed in duplicate. Data integration, correction and analysis were carried out in Origin 7 (Microcal). The data were fit to a one-site equilibrium-binding model. Stoichiometry (n) of binding in all cases was ~1:1 except for UDP whose n = 0.4.
# [2] = molecular target: T1, DmC1GalT1^T43-Q388; assay: UDP-Glo glycosylation kinetics of DmC1GalT1 T43-Q388; conditions: for kcat app/Km app (catalytic efficiency): ± standard error
# [3] = molecular target: T1, DmC1GalT1^T43-Q388; assay: STD NMR experiments; format: binding; design: made in house
# Procedure: STD NMR experiments were performed using a 1:35 molar ratio, defined by 20 μM DmC1GalT1^T43-Q388 and 710 μM ligands (α-O-methyl-GalNAc, and (glyco)peptides), and 25 mM Tris(D11)-DCl buffer, pD 7.5, with 150 mM NaCl and 150 µM MnCl2 in D2O. […] In the presence of 150 µM MnCl2, strong paramagnetic relaxation enhancements are observed for UDP, which prevents the observation of UDP proton signals in the NMR spectra. […] STD NMR spectra (stddiffesgp pulse sequence from Bruker pulse program library) were acquired with 1728 scans and 64 K data points, in a spectral window of 12335.53 Hz centered at 2818 Hz. Selective saturation (on resonance) was performed by irradiating at 7 and/or −0.5 ppm (depending if the ligand contains or not aromatic residues) using a series of 40 Eburp2.1000-shaped (from Bruker shaped pulses library) 90° pulses (50 ms) for a total saturation time of 2 s, and a relaxation delay of 4 s. For the reference spectrum (off resonance), the samples were irradiated at 100 ppm. Proper control experiments were performed for each ligand in the absence of protein and residual STD signals of the methyl groups of Ala/Thr were observed. […] Protein control experiments were also accomplished using DmC1GalT1^T43-Q388 in absence of a ligand and also subtracted from STD experiment. The STD spectrum (ISTD) was obtained by subtracting the on-resonance spectrum (Ion) to the off-resonance spectrum (Ioff). The % of STD (ISTD/Ioff × 100) was estimated by comparing the intensity of the signals in the STD spectrum (ISTD) with the signal intensities of the reference spectrum (Ioff). The STD amplification factor (STDAF) was also estimated by multiplying the % STD values by the ligand excess, which in the case of our experiments was 35 for every ligand. To determine the STD-derived epitope map the relative % of STD were calculated by setting to 100% the STD signal of the proton with the highest STD intensity and calculating the others accordingly (Supplementary Tables 2–4). Some protons were not able to be assessed with accuracy due to the use of water suppression or low signal/noise ratio and display a blue circle in the STD-derived epitope maps. Moreover, the resonances overlapped on the ^1H-NMR spectrum were considered in STD estimation and are labelled as *.
# [4] = Kd, excess UDP (1 mM UDP, 1 mM MnCl2), 2 mM (glyco)peptide, 50–60 µM enzyme, 25 mM TRIS pH 7.5, 150 mM NaCl, 20 °C, one-site fit ± fit error, n = 2
# [5] = acceptor varied, 500 µM UDP-Gal, 500 nM enzyme, pH 7.5, 30 min 37 °C, n = 2
# [6] = Kd, absence of UDP, 2 mM glycopeptide, 60 µM enzyme, 25 mM TRIS pH 7.5, 150 mM NaCl, 1 mM MnCl2, 20 °C, one-site fit ± fit error, n = 2
# [7] = UDP titration, 1 mM MnCl2, 20 °C
smiles,measurement,setting,value
CC(=O)N[C@H]1[C@@H](O[C@H](C)[C@H](NC(=O)[C@H](CC(=O)O)NC(=O)[C@@H]2CCCN2C(=O)[C@H](C)N)C(=O)N[C@@H](CCCNC(=N)N)C(=O)N2CCC[C@H]2C(N)=O)O[C@H](CO)[C@H](O)[C@@H]1O [APDT*RP],Kd,[1]; [4],173 µM
same,Kd,"[1]; absence of UDP, 2 mM glycopeptide, 60 µM enzyme, 25 mM TRIS pH 7.5, 150 mM NaCl, 1 mM MnCl2, 20 °C, one-site fit ± fit error, n = 2",Not measurable under our conditions
same,kcat app/Km app (catalytic efficiency),[2]; [5],300 ± 67 M⁻¹ s⁻¹ and 301.5 M⁻¹ s⁻¹
CC(=O)N[C@H]1[C@@H](O[C@H](C)[C@H](NC(=O)[C@H](C)NC(=O)[C@H](C)NC(=O)[C@@H]2CCCN2)C(=O)NCC(=O)N2CCC[C@H]2C(=O)N[C@@H](Cc2ccc(O)cc2)C(N)=O)O[C@H](CO)[C@H](O)[C@@H]1O [P4] (H-PAAT(αGalNAc)GPY-NH2),Kd,[1]; [6],41 µM
same,kcat app/Km app (catalytic efficiency),[2]; [5],1130 ± 100 M⁻¹ s⁻¹ and 1127 M⁻¹ s⁻¹
CC(=O)N[C@H]1[C@@H](O[C@H](C)[C@H](NC(=O)[C@H](CC(=O)O)NC(=O)[C@H](C)NC(=O)[C@@H](N)Cc2ccc(O)cc2)C(=O)NCC(=O)N2CCC[C@H]2C(=O)N[C@@H](Cc2ccccc2)C(N)=O)O[C@H](CO)[C@H](O)[C@@H]1O [P7] (H-YADT(αGalNAc)GPF-NH2),Kd,[1]; [6],37.1 µM
same,Kd,[1]; [4],60 µM
same,kcat app/Km app (catalytic efficiency),[2]; [5],478.8 M⁻¹ s⁻¹
O=c1ccn([C@@H]2O[C@H](COP(=O)(O)OP(=O)(O)O)[C@@H](O)[C@H]2O)c(=O)[nH]1 [UDP],Kd,[1],18.4 µM
same,"binding, fold stronger than binding of APDT*RP","[1]; ITC, relative to APDT*RP",~ 9.5 fold
same,n (stoichiometry of binding),[1]; [7],0.4
same,ΔH,[1]; [7],-4.264 ± 0.471 kcal/mol
CO[C@H]1O[C@H](CO)[C@H](O)[C@H](O)[C@H]1NC(C)=O [α-O-methyl-GalNAc],activity as acceptor substrate,[2]; 500 µM UDP-Gal,kinetic parameters could not be determined
same,Vmax app,"[2]; acceptor varied, 500 µM UDP-Gal, 500 nM enzyme, pH 7.5, 30 min 37 °C, Michaelis–Menten fit ± standard error, n = 2",548.9 nmol/min/mg
same,initial activity relative to that achieved with APDT*RP,[2]; at a saturating concentration of the glycopeptides (~500 µM),half
same,Km,"[2]; read-out: Km app, acceptor substrate varied (P1–P7 12.5–500 µM; APDT*RP/APDS*RP 12.5–1000 µM; α-O-methyl-GalNAc up to 2 mM), 500 µM UDP-Gal, 500 nM enzyme, 25 mM Tris pH 7.5, 150 mM NaCl, 50 µM MnCl2, 1 mg/ml BSA, 30 min 37 °C, Michaelis–Menten fit ± standard error, n = 2",10.3 mM
same,saturation of the enzyme,[2]; up to 2 mM substrate,did not reach saturation up to 2 mM
same,"STDAF, CH3 (NHAc) GalNAc",[3]; on resonance 7 ppm,20.0
same,"STDAF, H2 GalNAc",[3]; on resonance 7 ppm,45.0
same,"STDAF, H3 GalNAc",[3]; on resonance 7 ppm,24.9
same,"STDAF, H4 GalNAc",[3]; on resonance 7 ppm,27.9
same,"STDAF, H5-GalNAc",[3]; on resonance 7 ppm,25.8
same,"STDAF, H6-GalNAc",[3]; on resonance 7 ppm,29.5
same,"STDAF, OMe",[3]; on resonance 7 ppm,16.6
same,"relative % STD, CH3 (NHAc) GalNAc",[3]; on resonance 7 ppm,44%
same,"relative % STD, H3 GalNAc",[3]; on resonance 7 ppm,55%
same,"relative % STD, H4 GalNAc",[3]; on resonance 7 ppm,62%
same,"relative % STD, H5-GalNAc",[3]; on resonance 7 ppm,57%
same,"relative % STD, H6-GalNAc",[3]; on resonance 7 ppm,66%
same,"relative % STD, OMe",[3]; on resonance 7 ppm,37%
same,"STDAF, CH3 (NHAc) GalNAc",[3]; on resonance -0.5 ppm,18.9
same,"STDAF, H3 GalNAc",[3]; on resonance -0.5 ppm,20.0
same,"STDAF, H4 GalNAc",[3]; on resonance -0.5 ppm,28.7
same,"STDAF, H6-GalNAc",[3]; on resonance -0.5 ppm,23.6
same,"STDAF, OMe",[3]; on resonance -0.5 ppm,17.6
same,"relative % STD, CH3 (NHAc) GalNAc",[3]; on resonance -0.5 ppm,61%
same,"relative % STD, H3 GalNAc",[3]; on resonance -0.5 ppm,65%
same,"relative % STD, H4 GalNAc",[3]; on resonance -0.5 ppm,93%
same,"relative % STD, H6-GalNAc",[3]; on resonance -0.5 ppm,77%
same,"relative % STD, OMe",[3]; on resonance -0.5 ppm,57%
same,"STDAF, H2 GalNAc","[3]; on resonance -0.5 ppm, […] UDP, 150 µM MnCl2, 298 K",30.7
same,STD response,"[3]; presence of UDP ([…]) and 150 µM MnCl2, 20 µM enzyme, 710 µM ligand",clearly presented STD enhancements
